{"source": "patent US11142559B2", "about": "“Glucagon derivative, conjugate thereof, composition comprising same, and therapeutic use thereof” (HANMI PHARM. CO., LTD, priority 2016, dated 2021)", "origin": "cited, not measured here", "settings": "when taken for one year, according to a report", "data": [{"smiles": "CCCCCCCCCCC[C@@H](C[C@@H]1OC(=O)[C@H]1CCCCCC)OC(=O)[C@H](CC(C)C)NC=O", "note": "[Orlistat]", "values": [{"measurement": "weight loss", "value": "about 4 kg"}]}]}
